From US10908171B2, “Additive channels” (Emulate Inc., priority 2016, dated 2021)
Entries after “also recorded” stand apart in the source; their conditions may differ. Where a name gives a salt, the structure may show the parent alone. Positions of bridges follow the written chain, without caps; N, C: chain ends. Non-standard residues stand in square brackets, D forms with d. Residues, ends and D or L forms follow the SMILES beside them. hArg = N=C(N)NCCCC[C@H](N)C(=O)O; Mpa = O=C(O)CCS

Assays:
FcγRIIa = assay: hu5C8-mediated thrombosis on-chip, FcγRIIa dependence (platelet coverage, fibrin deposition, TAT); format: cell-based, human; conditions: with sCD40L, IV.3 1 μg/ml block or IgG2σ variant in place of hu5C8
Excerpt: Recent studies conducted on humanized mice expressing the human Fcγ receptors (FCGR2A) have shown that this receptor plays a role in thrombosis leading to the IC-mediated toxicity^12,16,21. […] In order to investigate if the IC5c8-induced thrombosis that we observed in our vessel-on-chip system also relies on an Fc-mediated mechanism, we used two different tool molecules: IgG2σ and IV.3 (FIG. 25A). The IgG2σ variant of hu5C8 has an engineered Fc region^48 that eliminates affinity for the FcγRIIa, while the monoclonal antibody IV.3 is a blocking antibody binding to FcγIIa. Briefly, equimolar concentrations of IgG2σ […] hu5c8 were incubated with […] sCD40L for 20 minutes to form ICIgG2σ or IC5c8, respectively.
Some of the blood samples were treated with IV.3 (1 μg/ml) for 10 minutes to block the FcγRIIa, and then incubated for 20 more minutes with IC5c8. Finally, blood alone (control) or blood incubated with IC5c8, ICIgG2σ or IV.3 was perfused through the biomimetic microfluidic-on-chip for about 10 minutes. We tested 15 donors and all the tested conditions described above were tested in duplicates and analyzed as percentage of platelet coverage based on fluorescence microscopic imaging (FIG. 25B). Five of the donors were also tested for fibrin deposition (FIG. 25C). Finally, effluents plasma obtained from a total of 7 of the donors (including the 5 mentioned before) were used to assess TAT via ELISA (FIG. 25D). […]
Blood from several human donors were aliquoted into groups for the following treatments: controls (PBS), sCD40L, combined hu5C8/sCD40L, combined hu5C8 (IgG2σ/sCD40L combined, and combined hu5C8/sCD40L/IV.3. Each condition was tested with a minimum of 3 donors to a maximum of 15 donors, and all conditions were tested in duplicates and analyzed for platelet coverage (FIG. 25B), fibrin deposition (FIG. 25C), or increased formation of TAT measured in the eluates (FIG. 25D). Platelet coverage and fibrin deposition following treatment were normalized and reported as fold-increase over untreated control values for each donor.

platelets = assay: Vessel-On-Chip platelet coverage / aggregation, fluorescence imaging of CD41-labelled platelets in perfused re-calcified blood; format: cell-based, human; conditions: for platelet aggregate formation / platelet coverage: hu5C8 240 μg/ml, sCD40L 10 ng/ml, alone or combined, 60 μl/minute, compared to untreated blood; for platelet coverage: endothelial pre-treatment TNF-α 50 ng/ml 6 hours, or blood with sCollagen 10 μg/ml, vs blood alone
Method: (§1) Briefly, human blood was drawn in citrate buffer and used within 4 hours. Platelets were stained using fluorescently labeled non-blocking antibodies for the platelet surface marker CD41 and low dosages of fluorescent fibrinogen were added in order to visualize fibrin deposition. Blood was re-calcified in order to re-establish the full coagulation potential, then introduced in the biomimetic vessel-on-chip from the main inlet (embodiments of inlets shown in FIG. 18A-1, FIG. 18A-2 and FIG. 19C). The outlet of the chip was connected to a pulling syringe pump with a system of tubing and connectors made of medical grade silicon that excludes any metal components or potential causes of platelet activation (FIG. 5A).
After 14 minutes of perfusion, the flow was interrupted and the chips were immediately imaged via fluorescence microscopy (FIG. 18C and FIG. 19D). In healthy conditions, endothelial cells will provide an antithrombotic surface where blood can flow smoothly, and indeed we detected minimal platelet adhesion or fibrin deposition in our vessel-on-chip after blood perfusion in control conditions, FIG. 18C, Blood.
Experiments with Blood: Blood Samples And Endothelium: Citrated human blood (Research Blood Components, Cambridge, Mass.) was used within 4 hours of a blood draw in order to minimize pre-analytical effects on platelet function. Before every experiment, each one of the endothelialized channels (i.e. microchannels having an endothelial cell layer) was inspected via light microscopy. Samples showing any sign of discontinuity in the endothelium were discarded. […] USA) was at room temperature for 20 minutes.
Platelets: Platelets were labeled with human CD41-PE antibody (10 μL/ml, Invitrogen) directly added to the blood and incubated at room temperature for 5 minutes.
(§2) Adding Blood to a Vessel-On-Chip And Flow Conditions: A medical grade plastic reservoir was mounted on the chip, then 800 μl of the blood sample was pipetted into the reservoir. The chip was perfused with the blood by withdrawing it at a rate of 60 μl/minute using a syringe pump. The citrated blood was re-calcified 2 minutes after the beginning of each experiment by adding 100 μl/ml of a solution containing 100 mM calcium chloride and 75 mM magnesium chloride to the blood to permit calcium- and magnesium-dependent platelet function and coagulation.
(§3) Fluorescence Image analysis: Chips perfused with blood samples were immediately imaged via fluorescence microscopy (Olympus IX83, 10× objective UPLFLN10X2, Orca-Flash 4.0 CMOS Camera). Each chamber was inspected along its entire length and 5 images (about 0.25 cm) were captured from the central area of the chamber. Image processing and quantification was performed with an automatic macro compiled in ImageJ and numerical values corresponding to platelet coverage or fibrin florescence were collected and statistically analyzed in Graphpad Prism V7.
(§4) Platelet Coverage: A percentage of signal coverage (or Platelet coverage) was computed from the binary image as the ratio of bright pixels to the total number of pixels in the image. Image processing and quantification was performed with an automatic macro compiled in ImageJ in order to ensure unbiased signal measurements. Numerical values corresponding to platelet coverage or fibrin fluorescence (signal intensity) were collected and statistically analyzed in Graphpad Prism V7.

fibrin = assay: Vessel-On-Chip fibrin deposition, fluorescent fibrinogen imaging; format: cell-based, human; conditions: for fibrin deposition on the endothelium: hu5C8 240 μg/ml, sCD40L 10 ng/ml, alone or combined, compared to untreated blood; for fibrin signal intensity: endothelial pre-treatment TNF-α 50 ng/ml 6 hours, or blood with sCollagen 10 μg/ml, vs blood alone
Method: as §1, §2
Visualizing Fibrin Deposition: When analyzing the formation of fibrin, 10 μg/ml of fluorescently labeled fibrinogen (Alexa 488, Invitrogen) was also added to the blood. While fluorescent fibrinogen was barely detected as a diffused fluorescence, fibrin deposition on inflamed cells and sparse clots was easily distinguished since fibrin formed filamentous structures produce a signal intensity that is clearly observed above a background threshold.
as §3, §4

[1] = system: thrombin anti-thrombin complex (TAT); assay: Thrombin anti-thrombin (TAT) ELISA in plasma of chip effluent; format: cell-based, human; conditions: for levels of TAT: plasma from blood flowing out of the chip, vs untreated blood
Method: Thrombin converts fibrinogen into fibrin during clot formation, and anti-thrombin plays a role in maintaining homeostasis by inhibiting the effect of thrombin. Formation of TAT in the microdevice confirms that local and intrinsic generation of thrombin, a potent platelet agonist, occurs in the model and that counter regulatory mechanisms for coagulation are retained. Thus, blood sampled from the Vessel-On-Chip was analyzed for thrombin anti-thrombin complex (TAT), an accepted clinical biomarker for procoagulation^48,49. TAT refers to a factor released upon activation of the coagulation cascade and one of the biomarkers associated with thrombotic events occurring in patients affected with deep vein thrombosis (DVT) or Systemic lupus erythematosus (SLE)^45,46. An enzyme-linked immunosorbent assay (ELISA) was used to quantify the thrombin anti-thrombin complex (TAT).
Thrombin-Anti Thrombin (TAT) Measurement via ELISA: Thrombin Anti-Thrombin (TAT) levels were analyzed in plasma from blood flowing out of the chip device by removing a sample from the outflow port. Thus TAT levels were evaluated in sample effluents collected from the outflow port of the chip using the Human TAT ELISA Kit (Siemens Healthineers) according to the user manual.
Blood sampled from the Vessel-On-Chip outflow port was analyzed for thrombin anti-thrombin complex (TAT), a factor released upon activation of the coagulation cascade and one of the biomarkers associated with thrombotic events occurring in patients affected with deep vein thrombosis (DVT) or SLE^45,46. TAT is an accepted clinical biomarker for procoagulation^48,49. An enzyme-linked immunosorbent assay (ELISA) was used to quantify the thrombin anti-thrombin complex (TAT).

[2] = lupus and/or Crohn's disease; cited from earlier work
ICAM1 = ICAM1 immunostaining of endothelium; format: cell-based, human; conditions: TNF-α stimulated vs control
Method: ICAM1 is shown with examples identified by white arrows. One example of a DAPI stained nuclei is shown inside of a white circle.
TNF-alpha Stimulation: In some experiment endothelial cells were stimulate with 50 ng/ml of TNF (Sigma) for 6 hours in order to induce vascular inflammation before blood perfusion.

re-calcified blood = assay: On-chip anticoagulation of outflowing blood through the anticoagulant port; parameters: species or system human; conditions: introduced through the anticoagulant port; vs chips without anticoagulant port
Excerpt: In order to functionally test the system, re-calcified blood was perfused through the inlet while anticoagulant, e.g. citrate buffer, was introduced online from the port situated next to the outflow port. Thus, blood obtained from the effluent of chips equipped with the anticoagulant port or without anticoagulant port were compared (FIG. 6). From a qualitative point of view the difference was striking.
In order to functionally test the additive channel (i.e. microfluidic chamber(s)) attached to the outflow port of a Vessel-On-Chip, re-calcified blood was perfused through the inlet port while citrate was introduced online from a port situated next to the outflow port, flowing through the additive channel. Thus, blood obtained from the effluent of chips equipped with the anticoagulant port (additive channel) or without anticoagulant port were compared (FIG. 6). From a qualitative point of view the difference was striking.

[3] = Eptifibatide 2 μg/ml, endothelium inflamed with TNF-α, n=4

Molecule: hu5C8 (IgG2σ): IgG2σ variant of hu5C8 with an engineered Fc region that eliminates affinity for FcγRIIa
- hu5C8-mediated thrombosis on-chip (platelet coverage, fibrin deposition, TAT) (FcγRIIa): did not show signs of thrombosis in any of the endpoints
- hu5C8-mediated thrombosis on-chip (platelet coverage, fibrin deposition, TAT) (FcγRIIa; listed as IgG2σ): suppressed
- hu5C8-mediated thrombosis on-chip (platelet coverage, fibrin deposition, TAT) (FcγRIIa; listed as hu5C8-IgG2σ): not detected

Molecule: N=C(N)NCCCC[C@@H]1NC(=O)CCSSC[C@@H](C(N)=O)NC(=O)[C@@H]2CCCN2C(=O)[C@H](Cc2c[nH]c3ccccc23)NC(=O)[C@H](CC(=O)O)NC(=O)CNC1=O [Eptifibatide] ([Mpa][hArg]GDWPC-NH2; disulfide 1-7)
- platelet aggregation (platelets; [3]): significantly inhibited
- inhibitory effect on platelet aggregation and fibrin clot formation (platelets; Eptifibatide 2 μg/ml, following treatment with sCollagen, n=4): comparatively modest
- platelet adhesion (image analysis) (platelets; Eptifibatide 2 μg/ml, samples treated with TNF-α, n=4): completely inhibited
- platelet coverage in stimulated, pro-thrombotic conditions (platelets; FIG. 18E-1, TNF-α or sCollagen with Eptifibatide, n=4 donors): suppressed
- fibrin clot formation (fibrin; [3]): significantly inhibited
- fibrin signal (image analysis) (fibrin; Eptifibatide 2 μg/ml, samples treated with TNF-α): a significant amount of fibrin signal was still detectable
- fibrin deposition in stimulated, pro-thrombotic conditions (fibrin; FIG. 18E-2, TNF-α or sCollagen with Eptifibatide, n=4 donors): suppressed
- TAT increment associated with TNF-α-induced inflammation ([1]; Eptifibatide treatment): did not inhibit
- TAT increment due to sCollagen treatment ([1]; Eptifibatide treatment): entirely suppressed

Molecule: hu5C8: humanized monoclonal IgG1 antibody against CD40L, alternatively named anti-CD154
- platelet aggregate formation / platelet coverage (platelets): no significant treatment-related effects
- fibrin deposition on the endothelium (fibrin): no significant treatment-related effects
- thromboembolism and cardiovascular events during clinical trials [2]: multiple incidents of thromboembolism and cardiovascular events

Molecule: TNF-α
- platelet coverage (platelets): increased areas of platelet coverage
- fibrin signal intensity (fibrin): increased
- levels of TAT [1]: significantly increased; also recorded: elevated levels of TAT
- expression of ICAM1 in the endothelium (ICAM1): increased expression; also recorded: higher

Molecule: sCollagen: soluble collagen (Soluble Calf Skin, Type I), a standard platelet activator
- platelet coverage (platelets): increased areas of platelet coverage
- fibrin signal intensity (fibrin): increased
- levels of TAT [1]: minimally increased; also recorded: elevated levels of TAT

Molecule: O=C(O)CC(O)(CC(=O)O)C(=O)O [sodium citrate]
- state of blood collected from the effluent (re-calcified blood): soluble (not clotted) blood

B1: sCD40L: soluble CD40 ligand (CD154); recombinant human sCD40 Ligand (protein, UniProt P29965 47-261, looked up)
extracellular domain: HRRLDKIEDERNLHEDFVFMKTIQRCNTGERSLSLLNCEEIKSQFEGFVKDIMLNKEETKKENSFEMQKGDQNPQIAAHVISEASSKTTSVLQWAEKGYYTMSNNLVTLENGKQLTVKRQGLYYIYAQVTFCSNREASSQAPFIASLCLKSPGRFERILLRAANTHSSAKPCGQQSIHLGGVFELQPGASVFVNVTDPSQVSHGTGFTSFGLLKL
modifications: extracellular domain
- increase in platelet coverage in some donors (platelets; fold-increase over untreated control): about 2 fold
- platelet aggregate formation / platelet coverage (platelets): no significant treatment-related effects; also recorded: not statistically significant
- fibrin deposition on the endothelium (fibrin): no significant treatment-related effects
